Values of other authors, collected in patent US20080195230A1, “Pericardial tissue sheet” (priority 2007, published 2008).

Tests used:
3T3 fibroblasts = details: in vitro
[1] = tested on: Chinese hamster ovary (CHO-K1) cells; details: in vitro
rabbit = details: i.v.

Compound | cytotoxicity compared with glutaraldehyde (3T3 fibroblasts) | genotoxicity (clastogenic response) [1] | LD50 (rabbit) [mg/kg] | solubility in organic solvents (alcohol, acetic acid, acetone) | solubility in water (water)
COC(=O)C1=CO[C@@H](O)[C@@H]2C(CO)=CC[C@H]12 [genipin] | substantially less cytotoxic than glutaraldehyde | does not cause clastogenic response |  |  | 
Deoxycholic acid |  |  | 15 | soluble in alcohol and to a lesser extent acetone and glacial acetic acid | sparingly soluble in water
